Assay results taken from US8546401B2, “5,6-disubstituted oxindole-derivatives and use thereof for treating vasopressin-dependent diseases” (AbbVie Deutschland GmbH & Co. KG, priority 2007, dated 2013).

Experiments:
human oxytocin receptors = target: T1, human oxytocin receptors (Homo sapiens, UniProt P30559); test: Oxytocin receptor binding assay; conditions: selectivity quotient
T1 construct: expressed in transfected cells; host or cells: HEK-293, transient expression; lysed and homogenized cells
T1 sequence (P30559 1-389): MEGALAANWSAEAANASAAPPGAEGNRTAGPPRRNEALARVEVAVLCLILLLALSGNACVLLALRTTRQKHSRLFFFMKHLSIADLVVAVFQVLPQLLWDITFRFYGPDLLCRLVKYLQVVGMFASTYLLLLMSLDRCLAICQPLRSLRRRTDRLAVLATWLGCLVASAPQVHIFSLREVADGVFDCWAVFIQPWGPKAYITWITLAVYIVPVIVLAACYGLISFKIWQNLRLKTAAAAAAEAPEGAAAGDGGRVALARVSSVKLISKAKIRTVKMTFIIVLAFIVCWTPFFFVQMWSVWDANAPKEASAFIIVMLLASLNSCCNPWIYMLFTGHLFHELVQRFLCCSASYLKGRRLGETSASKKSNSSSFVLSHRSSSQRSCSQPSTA
Experimental: 4. Oxytocin Receptor Binding Assay
The substances were dissolved in a concentration of 10^−2 M in DMSO and diluted with incubation buffer (50 mM Tris, 10 mM MgCl2, 0.1% BSA, pH 7.4).
Confluent HEK-293 cells with transiently expressing recombinant human oxytocin receptors were centrifuged at 750×g at room temperature for 5 minutes. The residue was taken up in ice-cold lysis buffer (50 mM Tris-HCl, 10% glycerol, pH 7.4 and Roche complete protease inhibitor) and subjected to an osmotic shock at 4° C. for 20 minutes. The lyzed cells were then centrifuged at 750×g at 4° C. for 20 minutes, the residue was taken up in incubation buffer, and aliquots of 10^7 cells/ml were prepared. The aliquots were frozen at −80° C. until used.
On the day of the experiment, the cells were thawed, diluted with incubation buffer and homogenized using a Multipette Combitip (Eppendorf, Hamburg). The reaction mixture of 0.250 ml was composed of 2 to 5×10^4 recombinant cells, 3-4 nM ^3H-oxytocin (PerkinElmer, NET 858) in the presence of test substance (inhibition plot) or only incubation buffer (total binding). The nonspecific binding was determined with 10^−6 M oxytocin (Bachem AG, H2510). Triplicate determinations were set up. Bound and free radioligand were separated by filtration under vacuum with Whatman GF/B glass fiber filters with the aid of a Skatron cell harvester 7000. The bound radioactivity was determined by liquid scintillation measurement in a Tricarb Beta counter, model 2000 or 2200CA (Packard).
The binding parameters were calculated by nonlinear regression analysis (SAS) in analogy to the LIGAND program of Munson and Rodbard (Analytical Biochem 1980; 107: 220-239). The Kd of ^3H-oxytocin for the recombinant hOT receptors is 7.6 nM and was used to determine the Ki.

[1] = target: T2, human vasopressin V1a receptor (Homo sapiens, UniProt P37288); test: Vasopressin V1a receptor binding assay; conditions: selectivity quotient, human receptors
T2 construct: expressed in transfected cells; host or cells: CHO-K1 (cell line hV1a_5_CHO), membrane preparation
T2 sequence (P37288 whole entry): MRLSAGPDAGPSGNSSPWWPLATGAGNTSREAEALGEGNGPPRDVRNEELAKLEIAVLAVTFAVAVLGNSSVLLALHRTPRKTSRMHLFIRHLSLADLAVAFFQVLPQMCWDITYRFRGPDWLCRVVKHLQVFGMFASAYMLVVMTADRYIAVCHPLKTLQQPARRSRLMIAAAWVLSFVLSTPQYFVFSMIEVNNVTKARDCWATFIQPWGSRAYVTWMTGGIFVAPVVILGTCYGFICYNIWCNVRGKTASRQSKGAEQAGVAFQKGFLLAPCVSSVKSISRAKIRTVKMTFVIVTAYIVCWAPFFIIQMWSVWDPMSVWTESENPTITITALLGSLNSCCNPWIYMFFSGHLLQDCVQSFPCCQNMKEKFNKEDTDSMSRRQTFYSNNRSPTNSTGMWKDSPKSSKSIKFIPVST
Experimental: 2. Vasopressin V1a Receptor Binding Assay:
The test substances were dissolved in a concentration of 10^−2 M in DMSO. Further dilution of these DMSO solutions took place in incubation buffer (50 mM Tris, 10 mM MgCl2, 0.1% BSA, pH 7.4).
CHO-K1 cells with stably expressed human vasopressin V1a receptor (clone 5) were harvested and homogenized in 50 mM Tris-HCl and in the presence of protease inhibitors (Roche complete Mini #1836170) using a Polytron homogenizer at intermediate setting for 2×10 seconds, and subsequently centrifuged at 40 000×g for 1 h. The membrane pellet was again homogenized and centrifuged as described and subsequently taken up in 50 mM Tris-HCl, pH 7.4, homogenized and stored in aliquots frozen in liquid nitrogen at −190° C.
(§1) The binding assay was carried out by the method based on that of Tahara et al. (Tahara A et al., Brit. J. Pharmacol. 125, 1463-1470 (1998)).
(§2) The incubation buffer was: 50 mM Tris, 10 mM MgCl2, 0.1% BSA, pH 7.4.
In the assay mixture (250 μl), membranes (20 μg/ml protein in incubation buffer) from CHO-K1 cells with stably expressed human V1a receptors (cell line hV1a—5_CHO) were incubated with 0.04 nM ^125I-AVP (8-Arg-vasopressin, NEX 128) in incubation buffer (50 mM Tris, 10 mM MgCl2, 0.1% BSA, pH 7.4) (total binding) or additionally with increasing concentrations of test substance (displacement experiment). The nonspecific binding was determined with 1 μM AVP (Bachem #H1780). Triplicate determinations were carried out.
After incubation (60 minutes at room temperature), the free radioligand was filtered off by vacuum filtration (Skatron cell harvester 7000) through Wathman GF/B glass fiber filter mats, and the filters were transferred into scintillation vials.
The liquid scintillation measurement took place in a model 2000 or 2200CA Tricarb instrument (Packard). Conversion of the measured cpm into dpm was carried out with the aid of a standard quench series.
The binding parameters were calculated by nonlinear regression in SAS. The algorithms of the program operate in analogy to the LIGAND analysis program (Munson P J and Rodbard D, Analytical Biochem. 107, 220-239 (1980)). The Kd of ^125I-AVP for the recombinant hV1a receptors was determined in saturation experiments. A Kd of 1.33 nM was used to determine the Ki.

[2] = target: T3, human vasopressin V1b receptor (Homo sapiens, UniProt P47901); test: Vasopressin V1b receptor binding assay; conditions: CHO-K1 membranes, 3H-AVP displacement
T3 construct: expressed in transfected cells; host or cells: CHO-K1 (cell line hV1b_3H2_CHO), membrane preparation
T3 sequence (P47901 1-424): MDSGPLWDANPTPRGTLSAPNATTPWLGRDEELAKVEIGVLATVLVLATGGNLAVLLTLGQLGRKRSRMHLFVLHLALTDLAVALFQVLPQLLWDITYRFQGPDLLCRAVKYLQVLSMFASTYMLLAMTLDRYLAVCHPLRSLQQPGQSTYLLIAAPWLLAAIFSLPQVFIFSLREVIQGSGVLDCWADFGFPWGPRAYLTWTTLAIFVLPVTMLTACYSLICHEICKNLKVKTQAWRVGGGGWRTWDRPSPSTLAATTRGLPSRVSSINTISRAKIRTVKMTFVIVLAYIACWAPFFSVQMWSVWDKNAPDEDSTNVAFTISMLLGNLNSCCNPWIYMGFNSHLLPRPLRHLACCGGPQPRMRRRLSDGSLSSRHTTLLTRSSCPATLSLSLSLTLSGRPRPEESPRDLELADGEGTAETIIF
Experimental: 1. Vasopressin V1b Receptor Binding Assay:
The test substances were dissolved in a concentration of 10^−2 M in DMSO and further diluted to 5×10^−4 M to 5×10^−3 M. These serial DMSO predilutions were diluted 1:10 with assay buffer. The substance concentration was further diluted 1:5 in the assay mixture (2% DMSO in the mixture).
CHO-K1 cells with stably expressed human vasopressin V1b receptor (clone 3H2) were harvested and homogenized in 50 mM Tris-HCl and in the presence of protease inhibitors (Roche complete Mini #1836170) using a Polytron homogenizer at intermediate setting for 2×10 seconds, and subsequently centrifuged at 40 000×g for 1 h. The membrane pellet was again homogenized and centrifuged as described and subsequently taken up in 50 mM Tris-HCl, pH 7.4, homogenized and stored in aliquots frozen in liquid nitrogen at −190° C.
as §1, §2
In the assay mixture (250 μl), membranes (50 μg/ml protein in incubation buffer) from CHO-K1 cells with stably expressed human V1b receptors (cell line hV1b—3H2_CHO) were incubated with 1.5 nM ^3H-AVP (8-Arg-vasopressin, PerkinElmer #18479) in incubation buffer (50 mM Tris, 10 mM MgCl2, 0.1% BSA, pH 7.4) (total binding) or additionally with increasing concentrations of test substance (displacement experiment). The nonspecific binding was determined with […] (Bachem #H1780). All determinations were carried out as triplicate determinations. After incubation (60 minutes at room temperature), the free radioligand was filtered off by vacuum filtration (Skatron cell harvester 7000) through Wathman GF/B glass fiber filter mats, and the filters were transferred into scintillation vials. The liquid scintillation measurement took place in a model 2000 or 2200CA Tricarb instrument (Packard). Conversion of the measured cpm into dpm was carried out with the aid of a standard quench series.
The binding parameters were calculated by nonlinear regression in SAS. The algorithms of the program operate in analogy to the LIGAND analysis program (Munson P J and Rodbard D, Analytical Biochem. 107, 220-239 (1980)). The Kd of ^3H-AVP for the recombinant human V1b receptors is 0.4 nM and was used to determine the Ki.

Compound	Ki(h − OT)/Ki(h − V1b)* (human oxytocin receptors)	Ki(h − V1a)/Ki(h − V1b)* [1]	Ki [2] [nM]
CCOc1ncccc1C1(OC(=O)N2CCN(C3CCN(C)CC3)CC2)C(=O)N(S(=O)(=O)c2ccccc2)c2cc(F)c(Cl)cc21 (stereo not drawn) [Example 45, 1-Phenylsulfonyl-5-chloro-3-(2-ethoxypyridin-3-yl)-6-fluoro-2-oxo-2,3-dihydro-1H-indol-3-yl 4-(1-methylpiperidin-4-yl)piperazine-1-carboxylate]	+++ (>75)	+ (10-<25)	1 to 10
CCOc1ncccc1C1(OC(=O)N2CCN(C3CCN(C)CC3)CC2)C(=O)N(S(=O)(=O)c2ccccc2OC)c2cc(F)c(Cl)cc21 (stereo not drawn) [Example 43, 5-Chloro-3-(2-ethoxypyridin-3-yl)-6-fluoro-1-(2-methoxyphenylsulfonyl)-2-oxo-2,3-dihydro-1H-indol-3-yl 4-(1-methylpiperidin-4-yl)piperazine-1-carboxylate]	+++ (>75)	++ (25-75)	< 1
CCOc1ncccc1C1(NC(=O)N2CCN(C3CCN(C)CC3)CC2)C(=O)N(S(=O)(=O)c2ccccc2)c2cc(F)c(Cl)cc21 (stereo not drawn) [Example 20, 4-(1-Methylpiperidin-4-yl)piperazine-1-[1-phenylsulfonyl-5-chloro-3-(2-ethoxypyridin-3-yl)-6-fluoro-2-oxo-2,3-dihydro-1H-indol-3-yl]carboxamide]	++ (25-75)	+ (10-<25)	1 to 10
CCOc1ncccc1C1(OC(=O)N2CCN(C3CCN(C)CC3)CC2)C(=O)N(S(=O)(=O)c2ccc(OC)cc2OC)c2cc(Cl)c(F)cc21 (stereo not drawn) [Example 46, 6-Chloro-1-(2,4-dimethoxyphenylsulfonyl)-3-(2-ethoxypyridin-3-yl)-5-fluoro-2-oxo-2,3-dihydro-1H-indol-3-yl 4-(1-methylpiperidin-4-yl)piperazine-1-carboxylate]	+ (10-<25)	++ (25-75)	1 to 10
CCOc1ccccc1C1(NC(=O)N2CCN(C3CCN(CC)CC3)CC2)C(=O)N(S(=O)(=O)c2ccc(OC)cc2OC)c2cc(F)c(C#N)cc21 (stereo not drawn) [Example 11, 4-(1-Ethylpiperidin-4-yl)piperazine-1-[5-cyano-1-(2,4-dimethoxyphenylsulfonyl)-3-(2-ethoxyphenyl)-6-fluoro-2-oxo-2,3-dihydro-1H-indol-3-yl]carboxamide]	+++ (>75)	+++ (>75)	< 1
CCOc1ncccc1C1(OC(=O)N2CCN(C3CCN(C)CC3)CC2)C(=O)N(S(=O)(=O)c2ccc(OC)cc2)c2cc(F)c(C#N)cc21 (stereo not drawn) [Example 39, 5-Cyano-3-(2-ethoxypyridin-3-yl)-6-fluoro-1-(4-methoxyphenylsulfonyl)-2-oxo-2,3-dihydro-1H-indol-3-yl 4-(1-methylpiperidin-4-yl)piperazine-1-carboxylate]	+++ (>75)	++ (25-75)	< 1
CCOc1ccccc1C1(NC(=O)N2CCC(N3CCN(CC)CC3)CC2)C(=O)N(S(=O)(=O)c2ccc(OC)cc2)c2cc(F)c(C#N)cc21 (stereo not drawn) [Example 17, 4-(4-Ethylpiperazin-1-yl)piperidine-1-[5-cyano-3-(2-ethoxyphenyl)-6-fluoro-1-(4-methoxyphenylsulfonyl)-2-oxo-2,3-dihydro-1H-indol-3-yl]carboxamide]	+++ (>75)	+ (10-<25)	1 to 10
CCOc1ncccc1C1(NC(=O)N2CCC(N3CCN(C)CC3)CC2)C(=O)N(S(=O)(=O)c2ccc(OC)cc2OC)c2cc(F)c(Cl)cc21 (stereo not drawn) [Example 23, 4-(4-Methylpiperazin-1-yl)piperidine-1-[5-chloro-1-(2,4-dimethoxyphenylsulfonyl)-3-(2-ethoxypyridin-3-yl)-6-fluoro-2-oxo-2,3-dihydro-1H-indol-3-yl]carboxamide]	+++ (>75)	+ (10-<25)	< 1
